The values that follow come from US4235962A, “Combination kit for transaminase assay of a body fluid” (The Dow Chemical Company, priority 1978, dated 1980).

The target in assay [1] is T1, ALT (alanine 2-oxoglutarate aminotransferase) (Homo sapiens, UniProt P24298).
T1 sequence (P24298 2-496 limits assumed): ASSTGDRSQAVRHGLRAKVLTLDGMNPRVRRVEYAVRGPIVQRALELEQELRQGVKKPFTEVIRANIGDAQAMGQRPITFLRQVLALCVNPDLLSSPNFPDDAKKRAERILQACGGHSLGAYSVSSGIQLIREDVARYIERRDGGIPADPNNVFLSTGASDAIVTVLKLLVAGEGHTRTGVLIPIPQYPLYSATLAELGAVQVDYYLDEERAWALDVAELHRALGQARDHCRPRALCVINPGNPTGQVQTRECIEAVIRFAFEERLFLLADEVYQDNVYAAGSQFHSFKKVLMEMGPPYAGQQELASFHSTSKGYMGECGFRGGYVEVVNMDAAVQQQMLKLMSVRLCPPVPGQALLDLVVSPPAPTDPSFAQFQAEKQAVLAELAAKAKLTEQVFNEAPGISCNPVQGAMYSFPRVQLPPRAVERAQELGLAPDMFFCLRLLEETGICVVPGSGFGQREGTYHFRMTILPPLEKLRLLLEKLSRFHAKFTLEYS
Text: For precise measurement of a bimolecular reaction of the type under discussion, the rate of a reaction, at a given "B" concentration should be independent of A's concentration (i.e. at or near apparent Vmax with respect to A). However, for situations where A's concentrations are very low (i.e. endogenous serum contributions of amino acids in a side reaction situation) it becomes important to be able to access the extent of measurement of the apparent maximum velocity of said "contaminant reaction." This being the case of a combination AST/ALT test where one is concerned with the measurement of AST in an ALT test or vice versa, a mathematical outline is in order. Both side reactions are quantitatively discussed below.
ALT, likewise having a "ping pong" mechanism of catalysis, can kinetically be described identically: [formula] […] (KB /B+1 is again <<KA /A.
Therefore the [formula] […] Therefore the % V1 apparent as measured [formula]

A further assay addresses AST (Sus scrofa, UniProt P00503). The conditions noted are these: cited from earlier work.

SMILES strings stand for the structures.

Sequence of AST (P00503 2-413 limits assumed): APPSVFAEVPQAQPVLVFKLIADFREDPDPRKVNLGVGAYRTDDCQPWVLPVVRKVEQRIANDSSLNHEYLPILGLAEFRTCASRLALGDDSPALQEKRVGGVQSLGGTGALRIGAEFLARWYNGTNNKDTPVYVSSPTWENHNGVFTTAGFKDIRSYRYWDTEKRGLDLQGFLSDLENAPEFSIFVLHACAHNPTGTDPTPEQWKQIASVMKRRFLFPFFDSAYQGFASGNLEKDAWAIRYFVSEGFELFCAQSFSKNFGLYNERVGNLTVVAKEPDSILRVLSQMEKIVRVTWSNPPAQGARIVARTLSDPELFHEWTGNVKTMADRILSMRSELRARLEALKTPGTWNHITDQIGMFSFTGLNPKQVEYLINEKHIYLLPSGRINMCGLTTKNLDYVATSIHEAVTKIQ

With `C[C@H](N)C(=O)O` [alanine, L-alanine], the “Theoretical turnover of ALT” value in assay [1] was 1.32 % Vmax.

In the case of `O=C(O)CCC(=O)C(=O)O` [2-oxoglutarate, 2-Oxoglutarate], at AST (read-out: KB, B = 2-oxoglutarate), the Km is 100 µM.

Consider `N[C@@H](CC(=O)O)C(=O)O` [aspartate, L-aspartate], for which the KA on AST (A = aspartate) is 0.90 mM.
